Assay type in all cases: in vivo
One test deals with Colletotricum lagenarium. Briefly: Cucumber Anthracnose greenhouse one-day protectant test. Particulars: Cucumis sativus, 24 h, cucumber plants, one-day protectant test, 200 ppm application rate; read-out: COLLLA percent control rating.
The subject of the next test is Erysiphe cichoracaerum. Briefly: Cucumber Powdery Mildew greenhouse one-day protectant test. Particulars: 24 h, cucumber plants, one-day protectant test, 200 ppm application rate, read-out: ERYSCI percent control rating.
In another test the test system is Leptosphaeria nodorum. As to the kind of experiment: Glume Blotch of Wheat greenhouse one-day protectant test. Particulars: Parastagonospora nodorum, 24 h; wheat plants, one-day protectant test, 200 ppm application rate; read-out: LEPTNO percent control rating.
The next test concerns Phytophthora infestans. As to the kind of experiment: whole plant or invertebrate. Particulars: in Solanum lycopersicum, 24 h, read-out: PHYTIN percent control rating, tomato plants, one-day protectant test, 200 ppm application rate.
For test [1], the system named is Puccinia recondita tritici. Briefly: Leaf Rust of Wheat greenhouse one-day protectant test. Particulars: 24 h, wheat plants, one-day protectant test, 200 ppm application rate, read-out: PUCCRT percent control rating.
In a further test the test system is Pyricularia oryzae. As to the kind of experiment: whole plant or invertebrate. Particulars: 24 h, read-out: PYRIOR percent control rating.

As to `O=C(c1ccccc1)c1cccc(C2=NN(CC(F)(F)F)C(=O)C(SC3CCCCC3)N2)c1` (stereo not drawn) [Compound 54], the pest or weed control at 200 ppm in the test on Colletotricum lagenarium lay within 50 to 79%; with Erysiphe cichoracaerum, 0 to 49%; in the test on Leptosphaeria nodorum, 80 to 100%; in the test on Phytophthora infestans, 0 to 49%; in test [1] it was 50 to 79%; with Pyricularia oryzae, 80 to 100%.

On to `O=C1C(SC2CCCCC2)NC(c2cccc(-c3ccsc3)c2)=NN1CC(F)(F)F` (stereo not drawn) [Compound 55], for which the pest or weed control at 200 ppm fell in the range of 50 to 79% in the test on Colletotricum lagenarium; 0 to 49% with Erysiphe cichoracaerum; 80 to 100% in the test on Leptosphaeria nodorum; 0 to 49% with Phytophthora infestans; 50 to 79% in test [1]; 80 to 100% in the test with Pyricularia oryzae.

As for `CON=C(c1ccccc1)c1cccc(C2=NN(CC(F)(F)F)C(=O)C(SC3CCCCC3)N2)c1` (stereo not drawn) [Compound 56], the pest or weed control at 200 ppm in the test with Colletotricum lagenarium fell in the range of 0 to 49%; in the test on Erysiphe cichoracaerum, 0 to 49%; with Leptosphaeria nodorum, 80 to 100%; with Phytophthora infestans it was 0 to 49%; in test [1] it was 50 to 79%; with Pyricularia oryzae it was 80 to 100%.

Take `O=C1C(SC2CCCCC2)NC(c2cccc(C(=NOCc3ccccc3)c3ccccc3)c2)=NN1CC(F)(F)F` (stereo not drawn) [Compound 57]: the pest or weed control at 200 ppm (in the test with Colletotricum lagenarium; with Erysiphe cichoracaerum; with Leptosphaeria nodorum; in the test with Phytophthora infestans; in test [1]; in the test on Pyricularia oryzae) was 0 to 49% in each case.

For the compound `O=C1CNC(c2ccc(N3CCOCC3)cc2)=NN1CC(F)(F)F` [Compound 58], the pest or weed control at 200 ppm in the test with Colletotricum lagenarium was in the range of 0 to 49%; in the test on Erysiphe cichoracaerum, 50 to 79%; with Leptosphaeria nodorum it was 0 to 49%; with Phytophthora infestans, 0 to 49%; in test [1], 0 to 49%; in the test on Pyricularia oryzae, 80 to 100%.

For `O=C1CNC(c2ccc(Oc3cccnc3)cc2)=NN1CC(F)(F)F` [Compound 59], the pest or weed control at 200 ppm in the test on Colletotricum lagenarium was in the range of 0 to 49%; in the test on Erysiphe cichoracaerum, 0 to 49%; with Leptosphaeria nodorum it was 50 to 79%; with Phytophthora infestans it was 50 to 79%; in test [1], 80 to 100%; in the test with Pyricularia oryzae, 50 to 79%.

With `O=C1CNC(c2csc(-c3ccccc3)c2)=NN1CC(F)(F)F` [Compound 60], the pest or weed control at 200 ppm in the test with Colletotricum lagenarium lay within 0 to 49%; with Erysiphe cichoracaerum, 0 to 49%; in the test with Leptosphaeria nodorum it was 80 to 100%; in the test with Phytophthora infestans it was 0 to 49%; in test [1], 0 to 49%; in the test on Pyricularia oryzae it was 80 to 100%.

`CCCCN1N=C(c2cc(-c3ccsc3)cc(-c3ccsc3)c2)NCC1=O` [Compound 62]: the pest or weed control at 200 ppm with Colletotricum lagenarium is 0 to 49%; in the test on Erysiphe cichoracaerum, 0 to 49%; in the test with Leptosphaeria nodorum, 80 to 100%; with Phytophthora infestans, 0 to 49%; in test [1], 0 to 49%; in the test with Pyricularia oryzae, 0 to 49%.

Turning to `Cc1cc(C)cc(C2=NN(Cc3c(F)c(F)c(F)c(F)c3F)C(=O)CN2)c1` [Compound 63], the pest or weed control at 200 ppm with Colletotricum lagenarium was 0 to 49%; with Erysiphe cichoracaerum, 0 to 49%; in the test with Leptosphaeria nodorum it was 50 to 79%; in the test with Phytophthora infestans it was 0 to 49%; in test [1], 0 to 49%; in the test on Pyricularia oryzae, 50 to 79%.

As to `Cc1cc(C)cc(C2=NN(CCOc3ccccc3)C(=O)CN2)c1` [Compound 64], the pest or weed control at 200 ppm in the test with Colletotricum lagenarium lay within 50 to 79%; with Erysiphe cichoracaerum, 0 to 49%; with Leptosphaeria nodorum, 80 to 100%; with Phytophthora infestans, 0 to 49%; in test [1], 80 to 100%; in the test with Pyricularia oryzae, 80 to 100%.

In the case of `O=C1CNC(c2cc(Cl)cc(Cl)c2)=NN1Cc1c(F)c(F)c(F)c(F)c1F` [Compound 65], the pest or weed control at 200 ppm in the test on Colletotricum lagenarium lay in the range of 80 to 100%; in the test with Erysiphe cichoracaerum, 0 to 49%; with Leptosphaeria nodorum it was 80 to 100%; with Phytophthora infestans it was 0 to 49%; in test [1], 0 to 49%; in the test on Pyricularia oryzae it was 50 to 79%.

Take `O=C1CNC(c2cc(Cl)cc(Cl)c2)=NN1CCOc1ccccc1` [Compound 66]: the pest or weed control at 200 ppm lay in the range of 80 to 100% with Colletotricum lagenarium; 0 to 49% in the test on Erysiphe cichoracaerum; 80 to 100% in the test with Leptosphaeria nodorum; 0 to 49% in the test with Phytophthora infestans; 80 to 100% in test [1]; 80 to 100% in the test with Pyricularia oryzae.

As to `O=C1CNC(c2cc(Br)cc(-c3ccsc3)c2)=NN1Cc1ccccc1` [Compound 68], the pest or weed control at 200 ppm in the test on Colletotricum lagenarium is 0 to 49%; in the test with Erysiphe cichoracaerum, 0 to 49%; in the test with Leptosphaeria nodorum, 80 to 100%; in the test with Phytophthora infestans, 0 to 49%; in test [1], 0 to 49%; in the test with Pyricularia oryzae it was 80 to 100%.

Take `O=C1CNC(c2cc(Br)cc(-c3ccsc3)c2)=NN1CCc1ccccc1` [Compound 69]: the pest or weed control at 200 ppm lay within 0 to 49% in the test with Colletotricum lagenarium; 0 to 49% in the test with Erysiphe cichoracaerum; 50 to 79% in the test on Leptosphaeria nodorum; 0 to 49% in the test with Phytophthora infestans; 0 to 49% in test [1]; 50 to 79% with Pyricularia oryzae.

On to `O=C1CNC(c2cccc(C#Cc3ccccc3)c2)=NN1CC(F)(F)F` [Compound 70], for which the pest or weed control at 200 ppm with Colletotricum lagenarium was in the range of 0 to 49%; in the test with Erysiphe cichoracaerum it was 0 to 49%; in the test on Leptosphaeria nodorum it was 0 to 49%; in the test on Phytophthora infestans, 0 to 49%; in test [1] it was 0 to 49%; in the test on Pyricularia oryzae, 80 to 100%.

With `O=C1CNC(c2cccc(/C=C\c3ccccc3)c2)=NN1CC(F)(F)F` [Compound 71], the pest or weed control at 200 ppm lay within 0 to 49% with Colletotricum lagenarium; 0 to 49% in the test with Erysiphe cichoracaerum; 80 to 100% with Leptosphaeria nodorum; 0 to 49% with Phytophthora infestans; 50 to 79% in test [1]; 50 to 79% in the test on Pyricularia oryzae.

`O=C1CNC(c2cccc(/C=C3/CCc4ccccc43)c2)=NN1CC(F)(F)F` [Compound 72]: the pest or weed control at 200 ppm in the test on Colletotricum lagenarium is 0 to 49%; with Erysiphe cichoracaerum, 0 to 49%; in the test on Leptosphaeria nodorum, 80 to 100%; in the test with Phytophthora infestans it was 0 to 49%; in test [1], 80 to 100%; in the test with Pyricularia oryzae, 80 to 100%.

Turning to `O=C1CNC(c2cccc(C(=NOCc3ccccc3)c3ccccc3)c2)=NN1CC(F)(F)F` [Compound 76], the pest or weed control at 200 ppm lay within 0 to 49% in the test on Colletotricum lagenarium; 0 to 49% in the test with Erysiphe cichoracaerum; 50 to 79% in the test with Leptosphaeria nodorum; 0 to 49% in the test with Phytophthora infestans; 50 to 79% in test [1]; 80 to 100% with Pyricularia oryzae.

For the compound `O=c1cnc(-c2ccc(N3CCOCC3)cc2)nn1CC(F)(F)F` [Compound 77], the pest or weed control at 200 ppm in the test with Colletotricum lagenarium was 80 to 100%; in the test with Erysiphe cichoracaerum, 50 to 79%; in the test on Leptosphaeria nodorum it was 50 to 79%; with Phytophthora infestans it was 50 to 79%; in test [1] it was 0 to 49%; with Pyricularia oryzae, 80 to 100%.

As to `O=c1cnc(-c2ccc(Oc3cccnc3)cc2)nn1CC(F)(F)F` [Compound 78], the pest or weed control at 200 ppm in the test with Colletotricum lagenarium was in the range of 80 to 100%; with Erysiphe cichoracaerum, 0 to 49%; in the test with Leptosphaeria nodorum, 50 to 79%; in the test with Phytophthora infestans, 80 to 100%; in test [1] it was 80 to 100%; in the test on Pyricularia oryzae, 80 to 100%.

For `O=c1cnc(-c2csc(-c3ccccc3)c2)nn1CC(F)(F)F` [Compound 79], the pest or weed control at 200 ppm with Colletotricum lagenarium lay within 50 to 79%; in the test on Erysiphe cichoracaerum it was 0 to 49%; in the test on Leptosphaeria nodorum it was 80 to 100%; in the test on Phytophthora infestans, 0 to 49%; in test [1], 80 to 100%; in the test with Pyricularia oryzae, 80 to 100%.

As to `CCCCn1nc(-c2cc(-c3ccsc3)cc(-c3ccsc3)c2)ncc1=O` [Compound 81], the pest or weed control at 200 ppm in the test on Colletotricum lagenarium lay in the range of 0 to 49%; with Erysiphe cichoracaerum, 0 to 49%; in the test on Leptosphaeria nodorum, 80 to 100%; in the test on Phytophthora infestans it was 0 to 49%; in test [1], 0 to 49%; in the test on Pyricularia oryzae, 0 to 49%.

Consider `O=c1cnc(-c2cc(Br)cc(-c3ccsc3)c2)nn1Cc1ccccc1` [Compound 82], for which the pest or weed control at 200 ppm fell in the range of 0 to 49% with Colletotricum lagenarium; 0 to 49% with Erysiphe cichoracaerum; 80 to 100% in the test on Leptosphaeria nodorum; 0 to 49% in the test with Phytophthora infestans; 0 to 49% in test [1]; 50 to 79% in the test with Pyricularia oryzae.

`O=c1cnc(-c2cc(Br)cc(-c3ccsc3)c2)nn1CCc1ccccc1` [Compound 83]: the pest or weed control at 200 ppm with Colletotricum lagenarium lay in the range of 0 to 49%; in the test on Erysiphe cichoracaerum, 0 to 49%; with Leptosphaeria nodorum, 50 to 79%; in the test on Phytophthora infestans it was 0 to 49%; in test [1], 0 to 49%; in the test with Pyricularia oryzae it was 0 to 49%.
